These results are taken from US20090010880A1 (priority 2007, published 2009).

Converted amounts (≈) assume the structure as drawn. Read-outs that look alike come from different tables or passages of the source.

The test system of series [1] is BVDV (Bovine Viral Diarrhea Virus). The series is described as follows: Cytopathic Effect Assay (CPEA), BVDV in BND cells. Type of series: cell-based. The settings on record: Bovine viral diarrhea virus isolates and strains.
The test system of series [2] is DV (Dengue Virus). The series is described as follows: Cytopathic Effect Assay (CPEA), Dengue virus in BHK cells. Type of series: cell-based. In general terms: Damage to the host cells serves as the signal in cytopathic effect assays.
For another series, the system named is viral protein NS3. The series is described as follows: Western blot analysis of viral NS3 protein. Type of series: cell-based, Bovine Viral Diarrhea Virus. To be noted: 25 μg/ml, 24 hours post infection, MOI of 10. The protocol:
MDBK cells were infected with NADL strain of BVDV (MOI 10) in the presence or absence of 25 μg/ml of geneticin. Based on previous publications, the 18-24 h post-infection time point was chosen to determine viral proteins in infected cells. […] Thus, at 24 h post-infection, cell media was removed and cells were washed several times with PBS. Then, 2× concentrated electrophoresis sample buffer was added, cells were scraped from the dish and transferred to a microcentrifuge tube. To reduce viscosity, the samples were sonicated briefly or passed several times through a 26-gauge needle and boiled for 5 min. Fifteen micrograms of lysate sample were run on 10% SDS-PAGE and then transblotted. After blocking for 1 h in blocking buffer (5% dry milk in 0.05% Tween 20 in PBS), membranes were incubated with primary antibody (MAb 20.10.6) diluted 1:1,000 in blocking buffer for 60 min at room temperature and washed with 0.05% Tween 20 in PBS. After incubation with secondary antibody (anti-mouse IgG-HRP; Sigma) diluted 1:200 in blocking buffer for 60 min at room temperature, NS3 was detected with the Amersham ECL kit according to the manufacturer's instructions (Amersham Biosciences, Piscataway, N.J., USA).

The nature of series [3]: Cytotoxicity (CC50) in BHK cells. Type of series: cell-based. To be noted: hamster.
For series [4], the system named is YFV (Yellow Fever Virus). Briefly: microbe, parasite or virus in culture. It counts as cell-based. To be noted: read-out: CPEA EC50.
Series [5] concerns BVDV (Bovine Viral Diarrhea Virus). The series is described as follows: Cytopathic Effect Assay (CPEA) / cell viability, BVDV in MDBK cells. To be noted: for EC50: Bovine viral diarrhea virus isolates and strains, MDBK.
Series [6] is described as follows: Cytotoxicity (CC50) in BND cells. The settings on record: bottlenose dolphin, BND skin cells. It counts as cell-based, Bottle Nose Dolphin.
In series [7] the test system is DV (Dengue Virus). Briefly: Yield Reduction Assay (YRA), Dengue virus in BHK cells. It counts as cell-based.
Series [8] relates to YFV (Yellow Fever Virus). Briefly: microbe, parasite or virus in culture. To be noted: read-out: YRA EC50. It counts as cell-based.
Series [9] deals with MDBK (Madin-Darby Bovine Kidney) cells. Briefly: Cytotoxicity / cell viability in MDBK cells. It counts as cell-based.
Series [10] in a line: Cytotoxicity / cell viability in MDBK cells. The settings on record: bovine, MDBK cells. Type of series: cell-based, Bovine.
Series [11] relates to BVDV (Bovine Viral Diarrhea Virus). The series is described as follows: microbe, parasite or virus in culture. Type of series: cell-based. To be noted: for inhibition of virus yield: 6-25 μg/ml, 24 and 48 hours post infection.
Another series relates to BVDV. Briefly: Antiviral activity against BVDV (structure-function analysis). Type of series: cell-based, Bovine Viral Diarrhea Virus.

For the compound `CN[C@@H]1[C@@H](O)[C@@H](O[C@@H]2[C@@H](O)[C@H](O[C@H]3O[C@H]([C@@H](C)O)[C@@H](O)[C@H](O)[C@H]3N)[C@@H](N)C[C@H]2N)OC[C@]1(C)O` [Geneticin], the EC50 was 50 µg/mL (≈ 101 µM) in series [1]; 4 µg/mL (≈ 8.06 µM) in the series on DV (Dengue Virus) [2]; 20 µg/mL (≈ 40.3 µM) in the series on YFV (Yellow Fever Virus) [4]; about 4 µg/mL (≈ 8.06 µM) in series [5] (read-out: CPEA EC50, BVDV, MDBK cells); 4 µg/mL (≈ 8.06 µM) in [5] (read-out: EC50 concentration for antiBVDV activity, BVDV); 5 µg/mL (≈ 10.1 µM) with DV (Dengue Virus) [7]. Besides, the EC50 with YFV (Yellow Fever Virus) [8] is 10 µg/mL (≈ 20.1 µM); in series [11] (Bovine viral diarrhea virus isolates and strains, MDBK, BVDV, MDBK cells, read-out: YRA EC50), about 4 µg/mL (≈ 8.06 µM). For the same compound, in the series with viral protein NS3, the “synthesis of the viral protein NS3” value was “no effect”. Further, the CC50 is 160 µg/mL (≈ 322 µM) in series [3], over 2000 µg/mL in series [6] and 400 µg/mL (≈ 806 µM) in [10]. Further, in series [9] (31-250 μg/ml, 72 hours), the “MDBK cell viability (uninfected)” value is listed as “no effect”. The “concentration with cell toxicity (downward curve of cell viability)” value in series [9] (high doses) was “above 400 μg/ml”. Also, in series [11], the viral production entry is reported as “below 10 % of control”. Further, the “inhibition of virus yield” value in series [11] (NADL strain) and in [11] (NY-1 strain) was 10-100 fold each time.
Regarding `CC(=O)O[C@H]1C[C@@]2(C)[C@@H](C[C@@H](O)[C@H]3[C@@]4(C)CC[C@@H](O)[C@@H](C)[C@@H]4CC[C@@]32C)/C1=C(\CCC=C(C)C)C(=O)O` [fusidic acid], the “antiviral activity against BVDV” value in the series with BVDV was “inactive”.
Regarding `NC[C@@H]1O[C@H](O[C@H]2[C@@H](O)[C@H](O[C@@H]3[C@@H](O)[C@H](N)C[C@H](N)[C@H]3O[C@H]3O[C@H](CO)[C@@H](O)[C@H](O)[C@H]3N)O[C@@H]2CO)[C@H](N)[C@@H](O)[C@@H]1O` [paromomycin], the “antiviral activity against BVDV” value in the series with BVDV was “no antiviral activity”.
Take gentamicin: the “cell viability of cpBVDV-infected cells (cytoprotection against NADL)” value in series [5] (NADL, MDBK cells, 12 μg/ml per drug) was “decreased the cell viability”.

Usually CC50 stands for the concentration that lowers cell viability or growth by half.
